Source: paper PMC5917093, “Brain Transport Profiles of Ginsenoside Rb1 by Glucose Transporter 1: In Vitro and in Vivo” (Frontiers in Pharmacology, 2018)
Where two headings read alike, the source gives them in different places.

Experiments:
[1] = design: method as in Li et al., 2007; details: rats, TPNS injection 10.0 mg/kg intravenous; ref Li et al., 2007; cited from earlier work
[2] = tested on: rBMEC (primary cultured rat brain microvascular endothelial cells); assay: Uptake of Rb1 by primary cultured rBMEC (time course, temperature, concentration dependence, Michaelis-Menten kinetics); assay type: in vitro ADME
Protocol: Isolation and culture of rat brain microvessel endothelial cells were operated according to previous studies with some modifications ([Liu et al., 2013]). The isolated rBMEC was seeded in cultured flasks coated with 2% gelatin and cultured in culture medium. The culture medium consisted of DMEM/F12 supplemented with 20% FBS, 2 mM L-glutamine, heparin (50 mg/L), 100 IU/mL penicillin, 100 μg/mL streptomycin, and NaHCO3 (0.5 g/L). On the first day after seeding, the culture medium was replaced, after which the culture medium was replaced every 2 days. At 5–6 days, the rBMEC was transferred to 6-well plates coated with gelatin and cultured in an incubator with a saturated humidity at 37°C in 5% CO2 and 95% air. Transport studies were performed when cells reached 100% confluency. The endothelial phenotype of the rBMEC was identified by staining for the endothelial cell marker vWF using a confocal laser scanning microscope (Leica TCS SP8).
When rBMEC was grown to 100% confluency in gelatin-coated 6-well plates, uptake experiments were performed. Briefly, the cultured cell monolayer was washed three times with 1 mL of pH 7.4 Hanks’ balanced salt solution (HBSS). The cultured rBMEC was pre-incubated for 30 min in 1 mL HBSS at 37 or 4°C. After pre-incubation, the HBSS solution was removed by suction, and HBSS (1 mL) containing 60 μg/mL Rb1 was added to initiate uptake. Then the cells were incubated at 37 or 4°C at a set time (5, 10, 15, 30, 60, 120, and 240 min). After the end of the incubation, the incubation solution was aspirated and the monolayers were carefully washed three times with 1 mL ice-cold HBSS to terminate the uptake. Then, 0.5 mL ultrapure water was added to each incubated well, and the material in the wells was frozen (at -80°C)/thawed (at room temperature) repeatedly four times to lyse cells. After the solubilized, the monolayer supernatants were collected and 10 μL was injected into LC–MS/MS to determine Rb1 concentration. The protein contents of the cell monolayers were measured by the method of Bradford using BSA as the standard ([Bradford, 1976]). Uptake was expressed as the cell-to-medium ratio (μL/mg protein or μL/mg protein/min) and termed the volume of distribution (Vd), obtained by dividing the uptake amount by the concentration of substrate in the transport medium. Vd is derived from the ratio of ng/mg protein to ng/μL buffer.
The uptake data were fitted to the above equation by nonlinear least-squares regression analysis with Graphpad Prism 5.0 software.
(§1) HPLC–MS/MS was composed by a Shimadzu LC-20A chromatographic system and an API 4000 mass spectrometer equipped with electrospray ionization (ESI) source system. MS/MS detection was performed on an API 4000 mass spectrometer using multiple reaction monitoring (MRM) mode by monitoring the fragmentation of m/z 1107.6 → 179.0 for Rb1 and m/z 779.4 → 345.2 for digoxin (IS). Chromatographic separations were carried out on a Shim-pack XD-ODS column (2.0 mm × 30 mm, 2.2 μm) with a Shim-pack GVD-ODS (2.0 mm × 5 mm, 4.6 μm) guard column (Shimadzu, Japan) at a flow rate of 0.28 mL/min using 10 mM acetic acid in water (phase A) and methanol (phase B) as mobile phase. A linear step gradient elution was performed as followed: phase B was increased from 45 to 90% within the first 3 min, and decreased to 45% within the next 3 min (total gradient time: 6 min). A 10 μL sample was injected into the system with the auto-sample conditioned at 4°C and column temperature maintained at 40°C.
The biological samples (100 μL) were placed in a 1.5 mL Eppendorf tube, and mixed with 10 μL IS solution (500 ng/mL) for 3 min by vortexing. The mixture was extracted with methanol (0.9 mL) by vortexing, and then centrifuged at 14,000 rpm for 5 min. The supernatant (0.8 mL) was transferred to a new 1.5 mL Eppendorf tube and evaporated to dryness under vacuum. The dried residue was reconstituted with 100 μL methanol, vortex-mixed for 30 s, and centrifuged at 14,000 rpm for 5 min. […]

[3] = Effect of phloretin on distribution of Rb1 in plasma and brain of normal rats; assay type: in vivo, rat; details: Rb1 10 mg/kg i.v.; for concentration at 0.5 h / concentration at 2 h / concentration at 6 h: rat
Protocol: Rats were randomly divided into two groups in 36 of each group. One group served as the control and another group were treated with phloretin. Dose of phloretin was set to be 5 mg/kg. Rb1 (10 mg/kg, i.v.) was administered to the experimental rats after i.v. administration of phloretin or saline for consecutive 1 week. Six rats from each group were selected and the blood samples were collected into heparinized Eppendorf tubes via the abdominal aorta at 0.5, 2, and 6 h after Rb1 administration. Then, brain samples were immediately collected. The plasma samples were obtained by centrifuging at 1000 × g for 10 min. Plasma and brain samples were frozen at -80°C until analysis.
as §1
The biological samples (100 μL) were placed in a 1.5 mL Eppendorf tube, and mixed with 10 μL IS solution (500 ng/mL) for 3 min by vortexing. The mixture was extracted with methanol (0.9 mL) by vortexing, and then centrifuged at 14,000 rpm for 5 min. The supernatant (0.8 mL) was transferred to a new 1.5 mL Eppendorf tube and evaporated to dryness under vacuum. The dried residue was reconstituted with 100 μL methanol, vortex-mixed for 30 s, and centrifuged at 14,000 rpm for 5 min. Finally, 10 μL of the supernatant liquid was immediately subjected to HPLC–MS/MS analysis. The system control and data analysis were performed by AB Sciex Analyst software (the software version: Analyst 1.5.1). Retention time for Rb1 was tR = 3.80 ± 0.01 min and for IS digoxin tR = 3.13 ± 0.01 min. The lowest limits of quantitation of Rb1 in cell lysate, plasma, and brain homogenate were 1, 2.5, and 1 ng/mL, respectively. The recoveries were higher than 90%; the relative standard deviations (SD) of intra-day and inter-day were lower than 10%.

[4] = 7.5-960 μg/mL Rb1, 37°C, 120 min, Michaelis-Menten fit

**Q.** With CC(C)=CCC[C@](C)(O[C@@H]1O[C@H](CO[C@@H]2O[C@H](CO)[C@@H](O)[C@H](O)[C@H]2O)[C@@H](O)[C@H](O)[C@H]1O)[C@H]1CC[C@]2(C)[C@@H]1[C@H](O)C[C@@H]1[C@@]3(C)CC[C@H](O[C@@H]4O[C@H](CO)[C@@H](O)[C@H](O)[C@H]4O[C@@H]4O[C@H](CO)[C@@H](O)[C@H](O)[C@H]4O)C(C)(C)[C@@H]3CC[C@]12C [Rb1, Ginsenoside Rb1] as the compound, how does the “duration in brain tissue” value [1] read?
**A.** ~24 h

**Q.** What about the “largest content in brain tissue” value [1] of the same compound?
**A.** about 1.4 μg/g

**Q.** And the “intracellular amounts of Rb1 at 37°C relative to 4°C” value ([2]; 60 μg/mL Rb1)?
**A.** about two to threefold

**Q.** And the “time at which steady-state uptake occurred” value ([2]; 60 μg/mL Rb1, 37°C)?
**A.** 120 min

**Q.** What about the Km [2, 4] of the same compound?
**A.** 119 ± 15.6 µM

**Q.** And the “Vmax of Rb1 uptake” value [2, 4]?
**A.** 0.0034 ± 0.0003 nmol/(mg protein ⋅ min)

**Q.** What about the “nonsaturable component (Pdiff) of Rb1 transport” value ([2]; 37°C) of the same compound?
**A.** 0.0023 μL/(mg protein ⋅ min)

**Q.** And the “share of total Rb1 uptake accounted for by the saturable component” value ([2]; low concentration range)?
**A.** 90%

**Q.** And the “Brain-to-plasma concentration ratio (Kp)” value ([3]; 0.5 h, phloretin-treated (5 mg/kg i.v., 1 week))?
**A.** 2.15 ± 0.19 μL/g brain

**Q.** What about the “Brain-to-plasma concentration ratio (Kp)” value ([3]; 0.5 h, untreated normal rats) of the same compound?
**A.** 7.09 ± 1.01 μL/g brain

**Q.** And the “Brain-to-plasma concentration ratio (Kp)” value ([3]; 2 h, phloretin-treated (5 mg/kg i.v., 1 week))?
**A.** 2.56 ± 0.06 μL/g brain

**Q.** What about the “Brain-to-plasma concentration ratio (Kp)” value ([3]; 2 h, untreated normal rats) of the same compound?
**A.** 4.9 ± 0.35 μL/g brain

**Q.** And the “Brain-to-plasma concentration ratio (Kp)” value ([3]; 6 h, phloretin-treated (5 mg/kg i.v., 1 week))?
**A.** 1.59 ± 0.005 μL/g brain

**Q.** What about the “Brain-to-plasma concentration ratio (Kp)” value ([3]; 6 h, untreated normal rats) of the same compound?
**A.** 3.24 ± 0.53 μL/g brain

**Q.** And the concentration at 0.5 h ([3]; brain, intravenous, 0.5 h, phloretin-treated (5 mg/kg i.v., 1 week), read-out: Brain concentration)?
**A.** 105 ± 15.1 ng/g

**Q.** What about the concentration at 2 h ([3]; brain, intravenous, 2 h, phloretin-treated (5 mg/kg i.v., 1 week), read-out: Brain concentration) of the same compound?
**A.** 84.8 ± 4.1 ng/g

**Q.** What about the concentration at 6 h ([3]; brain, intravenous, 6 h, phloretin-treated (5 mg/kg i.v., 1 week), read-out: Brain concentration) of the same compound?
**A.** 39.9 ± 4.9 ng/g

**Q.** And the concentration at 0.5 h ([3]; brain, iv, 0.5 h, untreated normal rats, read-out: Brain concentration)?
**A.** 490 ± 58.3 ng/g

**Q.** What about the concentration at 2 h ([3]; brain, iv, 2 h, untreated normal rats, read-out: Brain concentration) of the same compound?
**A.** 194 ± 11.1 ng/g

**Q.** And the concentration at 6 h ([3]; brain, iv, 6 h, untreated normal rats, read-out: Brain concentration)?
**A.** 114 ± 24 ng/g

**Q.** And the concentration at 0.5 h ([3]; plasma, intravenous, 0.5 h, phloretin-treated (5 mg/kg i.v., 1 week), read-out: Plasma concentration)?
**A.** 48700 ± 2900 ng/mL

**Q.** What about the concentration at 2 h ([3]; plasma, intravenous, 2 h, phloretin-treated (5 mg/kg i.v., 1 week), read-out: Plasma concentration) of the same compound?
**A.** 33200 ± 1400 ng/mL

**Q.** And the concentration at 6 h ([3]; plasma, intravenous, 6 h, phloretin-treated (5 mg/kg i.v., 1 week), read-out: Plasma concentration)?
**A.** 27000 ± 1500 ng/mL

**Q.** And the concentration at 0.5 h ([3]; plasma, iv, 0.5 h, untreated normal rats, read-out: Plasma concentration)?
**A.** 69300 ± 4500 ng/mL

**Q.** What about the concentration at 2 h ([3]; plasma, iv, 2 h, untreated normal rats, read-out: Plasma concentration) of the same compound?
**A.** 39700 ± 4100 ng/mL

**Q.** What about the concentration at 6 h ([3]; plasma, iv, 6 h, untreated normal rats, read-out: Plasma concentration) of the same compound?
**A.** 35200 ± 3000 ng/mL
